Experimental data reported in patent US5280015A, “2-substituted adenosines and 2-substituted adenosine 5'-carboxamides” (priority 1990, dated 1994).
“And” between values parts separate entries of the source, which are not always exact repeats. Identical values can stand only once. Counter-ions that a name gives are not always drawn. Like-named read-outs stand apart in the source and are kept apart here.

Columns and labels:
[1] = tested on: locomotor activity in NIH mice; test: Locomotor depression by A2 adenosine agonists in mice (Digiscan activity monitor); format: in vivo, mouse; conditions: for reversal of APEC locomotor depression by antagonist: antagonist injected before APEC, 8-cyclopentyltheophylline 10 mg/kg; for ED50: Mus musculus, read-out: ED50, locomotor depression; for ED50 / locomotor depression (% decrease in horizontal activity from vehicle control): ip
[2] = target: T1, A2-adenosine receptors (Rattus norvegicus, UniProt P30543); test: Inhibition of binding of [3H]CGS21680 to A2-adenosine receptors in rat striatal membranes
T1 construct: rat striatal membranes; from tissue; host or cells: rat striatal membranes
Method: (§1) Stock solutions of representative compounds of the present invention in the millimolar concentration range in dimethylsulfoxide were prepared for the binding assays. […] Protein was determined using the BCA (based on the complex with cuprous ions and bicinchoninic acid) protein assay reagents purchased from Pierce Chemical Co., Rockford, Ill.
The membrane suspension was then centrifuged at 37,000×g for 20 min at 4° C. The pellet was resuspended in buffer containing 2 IU/ml adenosine deaminase, Type VI from calf intestinal mucosa (Sigma, St. Louis, Mo.) to 20 mg/ml original tissue weight and incubated at 37° C. for 30 min. The membrane homogenate was recentrifuged as before, and the pellet was stored frozen at -70° C. until use.
For competitive binding assays using [^3 H]CGS21680, a volume of 1 ml was used in each 13×100 mm glass tube. […] The mixture was incubated with shaking for 90 min at 24° C. The samples were filtered on a Brandel Cell Harvester (Brandel, Gaithersburg, Md.) with Whatman GF/B filters, and washed rapidly twice with 5 ml of ice cold 50 mM Tris, pH 7.4. Each filter disc was added to 4 ml of scintillation fluid, vortexed, and counted after 6 hours.

[3] = target: T1, A2-adenosine receptors; test: Inhibition of binding of [3H]NECA to A2-adenosine receptors in rat striatal membranes
Method: as §1
N^6 -Cyclopentyladenosine was present at 50 nM to inhibit binding of the ligand at A1 -adenosine receptors.

[4] = target: A2 adenosine receptors (Bos taurus, UniProt E1BKU0); test: Competitive binding assay in bovine brain using 125I-PAPA-APEC (striatal membranes); design: Bovine striatal membranes; from tissue; host or cells: bovine (calf) striatal membranes
Method: (§2) The filters were washed with three×3 ml aliquots of pH 7.2 buffer containing 50 mM HEPES, 10 mM Mg^+2, and 0.05% CHAPS. The filters were placed in polypropylene tubes and counted in a Packard gamma counter.

[5] = target: T2, A1-adenosine receptors (Rattus norvegicus, UniProt P25099); test: Competitive binding assay at A1-adenosine receptors, rat cerebral cortex membranes ([3H]PIA or [3H]CHA)
T2 construct: rat cerebral cortex membranes; from tissue; host or cells: rat cerebral cortex membranes
T2 sequence (P25099 1-326): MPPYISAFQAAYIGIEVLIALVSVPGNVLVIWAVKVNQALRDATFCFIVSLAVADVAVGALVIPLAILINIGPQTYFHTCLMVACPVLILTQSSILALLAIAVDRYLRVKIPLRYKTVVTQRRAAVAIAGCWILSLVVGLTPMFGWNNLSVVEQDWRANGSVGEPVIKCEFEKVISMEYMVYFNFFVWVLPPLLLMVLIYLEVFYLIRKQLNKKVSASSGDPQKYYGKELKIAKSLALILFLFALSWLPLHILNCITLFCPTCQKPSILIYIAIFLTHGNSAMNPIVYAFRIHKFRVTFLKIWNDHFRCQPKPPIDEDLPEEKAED

[6] = tested on: A2-adenosine receptors; test: Competitive binding assay in bovine brain using 125I-PAPA-APEC (striatal membranes); conditions: for Ki (A1)/K1 (A2): ratio of Ki at A1-receptors (rat) versus Ki in the 125I-PAPA-APEC assay (bovine)
Method: as §2

[7] = tested on: human platelets; test: Increase in cyclic AMP in human platelets; format: cell-based; conditions: for activation at 1 µM: Platelet, read-out: increase in the level of cyclic AMP
[8] = read-out: Ki, inhibition of binding of [3H]CGS21680 at A2-receptors
[9] = bovine striatum; 11, 12 and 14: apparent Ki; read-out: Ki, inhibition of binding of 125I-PAPA-APEC at A2-receptors
[10] = rat, [3H]N6-cyclohexyladenosine (footnote c), read-out: Ki, inhibition of binding at A1-receptors using [3H]N6-cyclohexyladenosine
[11] = rat, [3H]PIA, read-out: Ki, inhibition of binding of [3H]PIA at A1-receptors
[12] = bovine brain A2; relative to compounds with Ki less than 10 nM
[13] = rat striatum, 11, 12 and 14: apparent Ki, read-out: Ki, inhibition of binding of [3H]CGS21680 at A2-receptors
[14] = Ki, inhibition of binding of 125I-PAPA-APEC at A2-receptors, bovine striatum; 11, 12 and 14: apparent Ki

T1 sequence (P30543 whole entry): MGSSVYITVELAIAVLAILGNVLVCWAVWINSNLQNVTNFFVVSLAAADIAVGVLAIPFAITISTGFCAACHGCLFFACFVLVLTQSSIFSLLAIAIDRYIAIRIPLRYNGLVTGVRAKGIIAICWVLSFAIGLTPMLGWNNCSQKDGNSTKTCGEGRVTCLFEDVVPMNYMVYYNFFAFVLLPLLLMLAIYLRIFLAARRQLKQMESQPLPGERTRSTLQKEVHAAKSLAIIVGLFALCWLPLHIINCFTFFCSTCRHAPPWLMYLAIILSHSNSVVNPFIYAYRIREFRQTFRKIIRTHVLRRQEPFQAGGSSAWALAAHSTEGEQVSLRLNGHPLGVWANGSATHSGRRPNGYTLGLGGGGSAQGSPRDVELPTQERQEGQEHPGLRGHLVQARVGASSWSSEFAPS
Sequence of A2 adenosine receptors (E1BKU0 1-401): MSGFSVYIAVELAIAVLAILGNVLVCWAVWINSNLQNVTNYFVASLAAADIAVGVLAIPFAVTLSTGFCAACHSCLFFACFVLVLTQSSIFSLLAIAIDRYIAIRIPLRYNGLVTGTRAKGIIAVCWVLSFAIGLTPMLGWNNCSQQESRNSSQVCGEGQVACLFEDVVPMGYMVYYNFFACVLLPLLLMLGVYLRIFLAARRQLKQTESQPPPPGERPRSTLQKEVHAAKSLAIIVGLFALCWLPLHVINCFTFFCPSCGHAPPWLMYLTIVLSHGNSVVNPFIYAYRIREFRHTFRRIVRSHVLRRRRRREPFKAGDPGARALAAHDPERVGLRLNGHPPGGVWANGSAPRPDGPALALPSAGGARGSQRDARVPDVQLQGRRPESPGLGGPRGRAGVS

Row | Ki [2, 8] [nM] | Ki [4, 9] | Ki (A1)/K1 (A2) [6] | Ki [5, 11] [nM] | Structure (SMILES) | other results
1 |  |  |  |  | CCCn1c(=O)c2[nH]c(C3CCCC3)nc2n(CCC)c1=S [8-cyclopentyl-1,3-dipropyl-2-thioxanthine] | reversal of APEC locomotor depression by antagonist ([1]; mice): not
2 |  |  |  |  | Cn1c(=O)c2[nH]c(C3CCCC3)nc2n(C)c1=O [8-cyclopentyltheophylline] | reversal of APEC locomotor depression by antagonist ([1]; mice): not
3 |  |  |  |  | NCCNC(=O)Cc1ccc(NC(=O)Cc2ccc(Nc3ncnc4c3ncn4[C@@H]3O[C@H](CO)[C@@H](O)[C@H]3O)cc2)cc1 [ADAC, reference compound] | Ki [2]: 218 ± 28 nM; Ki [3]: 210 nM
4 |  |  |  |  | OC[C@H]1O[C@@H](n2cnc3c(NC4CCCCC4)ncnc32)[C@H](O)[C@@H]1O [CHA, N^6 -cyclohexyladenosine] | ED50 ([1]; mice, i.p., from dose response curves): 0.06 mg/kg; reversal of agonist-elicited locomotor depression by A1-selective antagonists ([1]; mice, agonist with A1-selective antagonists): reversed by A1 -selective antagonists
5 | 5 ± 2 | < 10 nM and 6.1 nM | 370 |  | CCNC(=O)[C@H]1O[C@@H](n2cnc3c(N)nc(NCCc4ccc(CCC(=O)OC)cc4)nc32)[C@H](O)[C@@H]1O [Compound 2] | Ki [5, 10]: 2260 ± 440 nM; Ki [3]: 17.5 ± 1.6 nM
6 | 13 ± 4 | 13.2 ± 1.5 nM | 72 |  | CCNC(=O)[C@H]1O[C@@H](n2cnc3c(N)nc(NCCc4ccc(CCC(=O)NCCNC(=O)CCc5ccc(O)cc5)cc4)nc32)[C@H](O)[C@@H]1O [Compound 4] | locomotor depression (% decrease in horizontal activity from vehicle control) ([1]; mouse, in vivo): 44±7%; Ki [5, 10]: 950 ± 100 nM
7 | 15 ± 1 | 21.3 ± 7.9 nM | 66 |  | CCNC(=O)[C@H]1O[C@@H](n2cnc3c(N)nc(NCCc4ccc(CCC(=O)NCCNC(=O)Cc5cccs5)cc4)nc32)[C@H](O)[C@@H]1O [Compound 5] | locomotor depression (% decrease in horizontal activity from vehicle control) ([1]; mouse, in vivo): 49±9%; Ki [5, 10]: 1400 ± 100 nM
8 | 28 ± 7 | 43 ± 14 nM | 31 | 1340 | CCNC(=O)[C@H]1O[C@@H](n2cnc3c(N)nc(NCCc4ccc(CCC(=O)NCCNC(=O)Cc5ccc(N)cc5)cc4)nc32)[C@H](O)[C@@H]1O [Compound 6] | potency in displacing 125I-PAPA-APEC binding [4, 12]: less potent; activation at 1 µM ([7]; human platelets, 10^-6 M): 40%; increase in cyclic AMP ([7]; human platelets, 1 nM to 10 μM): dose dependent increase in cyclic AMP
9 | 37 ± 5 | < 10 nM and 6.2 nM | 45 | 278 ± 18.7 | CCNC(=O)[C@H]1O[C@@H](n2cnc3c(N)nc(NCCc4ccc(CCC(=O)NCCNC(=O)Cc5ccc(NC(=O)OCc6ccccc6)cc5)cc4)nc32)[C@H](O)[C@@H]1O [Compound 7] | Ki [3]: 5.59 ± 0.99 nM
10 |  | 43.6 ± 5.2 nM | 31 | 1340 ± 28 | CCNC(=O)[C@H]1O[C@@H](n2cnc3c(N)nc(NCCc4ccc(CCC(=O)NCCNC(=O)c5cccc(N)c5)cc4)nc32)[C@H](O)[C@@H]1O [Compound 8] | Ki [2, 13]: 16.5 ± 2.8 nM; potency in displacing 125I-PAPA-APEC binding [4, 12]: less potent
11 | 12 ± 2 | < 10 nM and 8.7 nM | 78 |  | CCNC(=O)[C@H]1O[C@@H](n2cnc3c(N)nc(NCCc4ccc(CCC(=O)NCCNC(=O)c5cccc(NC(=O)OCc6ccccc6)c5)cc4)nc32)[C@H](O)[C@@H]1O [Compound 9] | Ki [5, 10]: 680 ± 110 nM
12 | 55 ± 30 | 14.3 ± 3.3 nM | > 350 |  | CCNC(=O)[C@H]1O[C@@H](n2cnc3c(N)nc(NCCc4ccc(CCC(=O)NCCNC(=O)CCCC[C@@H]5SC[C@@H]6NC(=O)N[C@@H]65)cc4)nc32)[C@H](O)[C@@H]1O [Compound 10] | Ki [5, 10]: > 5000 nM
13 |  | 10.9 ± 2.3 nM | 347 | 3780 ± 800 | CCNC(=O)[C@H]1O[C@@H](n2cnc3c(N)nc(NCCc4ccc(CCC(=O)NCCNC(=S)Nc5ccc(S(=O)(=O)O)cc5)cc4)nc32)[C@H](O)[C@@H]1O [Compound 13, 2-[4-[2-[2-[4-(Sulfophenylthioureidyl)]-ethylaminocarbonyl]ethyl]phenyl]ethylamino]-5'-N-ethylcarboxamidoadenosine sodium salt] | locomotor depression (% decrease in horizontal activity from vehicle control) ([1]; mouse, in vivo): 41±5%; Ki [2, 13]: 26 ± 10 nM; selectivity for A2 receptors ([6]; A2 versus A1): more than 200 fold
14 | 69.7 | 15.8 ± 4.8 nM | 125 | 1980 ± 102 | CCNC(=O)[C@H]1O[C@@H](n2cnc3c(N)nc(NCCc4ccc(CCC(=O)NCCNC(=O)CBr)cc4)nc32)[C@H](O)[C@@H]1O [Compound 14] | 
15 |  |  |  |  | CCNC(=O)[C@H]1O[C@@H](n2cnc3c(N)nc(NCCc4ccc(CCC(=O)NCCNC(=S)NC5CC(C)(C)N([O])C(C)(C)C5)cc4)nc32)[C@H](O)[C@@H]1O [Compound 15] | Ki ([2]; read-out: Ki, inhibition of binding of [3H]CGS21680 at A2-receptors, rat striatum, 11, 12 and 14: apparent Ki): 27 ± 3 nM; Ki ([4]; read-out: Ki, inhibition of binding of 125I-PAPA-APEC at A2-receptors; bovine striatum; 11, 12 and 14: apparent Ki): 14.8 ± 3.6 nM; Ki ([5]; read-out: Ki, inhibition of binding at A1-receptors using [3H]N6-cyclohexyladenosine, rat, [3H]N6-cyclohexyladenosine (footnote c)): 177 ± 38 nM
16 | 18.9 ± 4.9 | 25.4 ± 7.6 nM | 57 | 1450 ± 67 | CCNC(=O)[C@H]1O[C@@H](n2cnc3c(N)nc(NCCc4ccc(CCC(=O)NCCCCNC(=O)c5ccc(CF)cc5)cc4)nc32)[C@H](O)[C@@H]1O [Compound 16] | locomotor depression (% decrease in horizontal activity from vehicle control) ([1]; […]): 50±4%; potency in displacing 125I-PAPA-APEC binding [4, 12]: less potent
17 |  | 31.6 ± 1.3 nM |  |  | CCNC(=O)[C@H]1O[C@@H](n2cnc3c(N)nc(NCCc4ccc(CCC(=O)NCCNc5ccc([N+](=O)[O-])c6nonc56)cc4)nc32)[C@H](O)[C@@H]1O [Compound 17] | affinity at A2-adenosine receptors ([6]; fluorescent probes, derivatives in general): high affinity
18 |  |  |  |  | CCNC(=O)[C@H]1O[C@@H](n2cnc3c(N)ncnc32)[C@H](O)[C@@H]1O [NECA, 5'-N-ethylcarboxamidoadenosine, reference compound] | ED50 [1]: 0.002 mg/kg; activation at 1 µM ([7]; Homo sapiens): 35%
19 |  |  |  |  | Cn1c(=O)c2[nH]cnc2n(C)c1=O [theophylline] | total distance traveled restored, % of control ([1]; antagonist 10 mg/kg, at the ED50 dose of APEC, mice): 95±12 % of control; reversal of APEC locomotor depression by antagonist ([1]; mice): reversible by theophylline

Row | Structure (SMILES) | Ki [2, 8] [nM] | Ki [4, 9] | Ki (A1)/K1 (A2) [6] | Ki [5, 11] [nM] | other results
20 | CCNC(=O)[C@H]1O[C@@H](n2cnc3c(N)nc(NCCc4ccc(CCC(=O)NCCN)cc4)nc32)[C@H](O)[C@@H]1O [Compound 3] | 12 ± 3 | < 10 nM and 6.1 nM | 16 | 235 ± 54 | ED50 [1]: 0.016 mg/kg; locomotor depression ([1]; mice, i.p., horizontal activity and total distance traveled): potent locomotor depressant in mice in a dose-dependent manner; Ki ([3]; read-out: Ki, inhibition of binding of [3H]NECA at A2-receptors, rat striatum, 11, 12 and 14: apparent Ki): 5.73 ± 0.52 nM
21 | CCNC(=O)[C@H]1O[C@@H](n2cnc3c(N)nc(NCCc4ccc(CCC(=O)NCCNC(=S)Nc5cccc(N=C=S)c5)cc4)nc32)[C@H](O)[C@@H]1O [Compound 11] |  |  | 11 |  | Ki [2]: 22 ± 7 nM; Ki [4, 14]: < 10 nM and 6.2 nM; Ki [5]: 69.7 ± 7.9 nM; Ki [3]: 2.82 ± 0.38 nM
22 | CCNC(=O)[C@H]1O[C@@H](n2cnc3c(N)nc(NCCc4ccc(CCC(=O)NCCNC(=S)Nc5ccc(N=C=S)cc5)cc4)nc32)[C@H](O)[C@@H]1O [Compound 12] |  |  | 39 |  | Ki [2]: 35 ± 10 nM; Ki [4, 14]: < 10 nM and 7.1 nM; Ki [5]: 276 ± 75 nM
